Key:
[1] = molecular target: T1, bovine cardiac myofibrils (Bos taurus, UniProt Q9BE39); test: Skinned bovine cardiac myofibril ATPase assay (PK/LDH-coupled); type: biochemical; settings: myofibril ATPase at Ca2+ giving 75% activation (pCa75)
T1 construct: full-length cardiac myosin in the context of the native sarcomere; from tissue; host or cells: bovine cardiac left ventricular tissue, detergent-skinned (Triton X-100) myofibrils
From the text: Bovine cardiac myofibrils were obtained by homogenizing bovine cardiac left ventricular tissue in the presence of a detergent such as triton X-100. Such treatment removes membranes and a majority of the soluble cytoplasmic proteins but leaves intact the cardiac sarcomeric acto-myosin apparatus. Myofibril preparations retain the ability to hydrolyze ATP in a Ca^2+ regulated manner. […] This assay regenerates myosin-produced ADP into ATP by oxidizing NADH, producing an absorbance change at 340 nm.

[2] = tested on: rat cardiac contractility; test: Echocardiography assessment of cardiac contractility, oral gavage; type: in vivo, Sprague Dawley rats; settings: oral dosing, estimated value
Experimental: Assessment of in vivo cardiac function by echocardiography was performed in male Sprague Dawley rats under isoflurane (1-3%) anesthesia. […] In vivo fractional shortening was determined by M-mode image analysis with the following calculation: ((End diastolic diameter−end systolic diameter)/end diastolic diameter×100). […] During infusion, M-mode images were taken at 5 minute intervals. The infusion stopped when fractional shortening reached up to a 60% reduction from baseline. […] Data was reported as an estimated IC50 value, which is the concentration at which fractional shortening is 50% of the pre-dose baseline contractility.
For oral dosing studies, three pre-dose baseline M-Mode images were taken at 1 minute intervals prior to compound administration. […] Rats were lightly anesthetized for M-Mode echocardiography measurements at select time points over a 24 hour period. Different dose levels were evaluated for (R)-N-(5-(5-ethyl-1,2,4-oxadiazol-3-yl)-2,3-dihydro-1H-inden-1-yl)-1-methyl-1H-pyrazole-4-carboxamide. The compound effect on cardiac fractional shortening at the highest dose evaluated is presented in Table D as a percent reduction of baseline fractional shortening (=100%).

T1 sequence (Q9BE39 whole entry): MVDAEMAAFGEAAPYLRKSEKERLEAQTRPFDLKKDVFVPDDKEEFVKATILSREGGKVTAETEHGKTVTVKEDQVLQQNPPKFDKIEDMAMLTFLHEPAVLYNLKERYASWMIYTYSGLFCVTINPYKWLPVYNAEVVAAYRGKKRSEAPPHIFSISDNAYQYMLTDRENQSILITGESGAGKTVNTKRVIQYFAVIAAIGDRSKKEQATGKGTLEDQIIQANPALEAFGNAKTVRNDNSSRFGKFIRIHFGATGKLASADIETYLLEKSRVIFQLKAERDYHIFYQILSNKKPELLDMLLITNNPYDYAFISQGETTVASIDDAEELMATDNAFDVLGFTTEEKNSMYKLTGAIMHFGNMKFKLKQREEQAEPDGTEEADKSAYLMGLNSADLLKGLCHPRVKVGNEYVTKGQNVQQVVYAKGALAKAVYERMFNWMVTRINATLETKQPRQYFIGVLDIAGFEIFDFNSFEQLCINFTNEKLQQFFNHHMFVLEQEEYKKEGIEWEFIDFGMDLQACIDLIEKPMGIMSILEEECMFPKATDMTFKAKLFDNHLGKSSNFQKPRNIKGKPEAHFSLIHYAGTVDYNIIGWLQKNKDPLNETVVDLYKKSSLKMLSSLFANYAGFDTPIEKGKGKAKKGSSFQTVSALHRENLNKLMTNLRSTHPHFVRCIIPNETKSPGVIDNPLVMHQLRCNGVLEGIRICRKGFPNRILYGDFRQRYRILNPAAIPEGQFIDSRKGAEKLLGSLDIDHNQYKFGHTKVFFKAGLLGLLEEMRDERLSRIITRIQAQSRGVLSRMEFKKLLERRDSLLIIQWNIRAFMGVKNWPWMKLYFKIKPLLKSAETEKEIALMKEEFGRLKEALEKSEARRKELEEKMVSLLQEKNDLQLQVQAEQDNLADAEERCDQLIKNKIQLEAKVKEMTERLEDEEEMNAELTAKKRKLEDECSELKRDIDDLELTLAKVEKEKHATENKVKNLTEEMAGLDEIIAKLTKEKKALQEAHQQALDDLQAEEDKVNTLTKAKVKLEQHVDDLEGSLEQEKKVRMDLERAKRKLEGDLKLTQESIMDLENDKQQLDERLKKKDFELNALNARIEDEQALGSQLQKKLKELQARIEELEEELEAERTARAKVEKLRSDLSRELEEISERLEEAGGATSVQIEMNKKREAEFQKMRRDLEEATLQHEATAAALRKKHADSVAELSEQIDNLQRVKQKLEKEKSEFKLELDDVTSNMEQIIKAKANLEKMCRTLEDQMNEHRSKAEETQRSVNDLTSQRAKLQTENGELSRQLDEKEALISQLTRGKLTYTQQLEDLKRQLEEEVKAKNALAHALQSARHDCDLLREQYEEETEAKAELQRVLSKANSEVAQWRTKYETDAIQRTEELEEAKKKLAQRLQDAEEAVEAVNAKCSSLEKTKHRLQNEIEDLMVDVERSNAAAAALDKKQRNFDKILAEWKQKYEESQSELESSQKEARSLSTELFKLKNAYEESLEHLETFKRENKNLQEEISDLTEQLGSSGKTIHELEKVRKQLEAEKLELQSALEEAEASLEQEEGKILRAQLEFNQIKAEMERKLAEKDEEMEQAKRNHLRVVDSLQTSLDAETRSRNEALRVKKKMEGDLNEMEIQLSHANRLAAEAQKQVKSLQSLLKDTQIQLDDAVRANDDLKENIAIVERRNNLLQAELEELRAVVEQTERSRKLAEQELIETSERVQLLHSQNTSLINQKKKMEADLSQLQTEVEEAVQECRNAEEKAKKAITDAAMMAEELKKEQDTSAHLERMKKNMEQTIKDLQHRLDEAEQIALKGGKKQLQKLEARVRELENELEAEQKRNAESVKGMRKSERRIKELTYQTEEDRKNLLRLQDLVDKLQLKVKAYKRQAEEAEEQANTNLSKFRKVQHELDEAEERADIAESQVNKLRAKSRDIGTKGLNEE
T1 sequence (P85100 whole entry partner): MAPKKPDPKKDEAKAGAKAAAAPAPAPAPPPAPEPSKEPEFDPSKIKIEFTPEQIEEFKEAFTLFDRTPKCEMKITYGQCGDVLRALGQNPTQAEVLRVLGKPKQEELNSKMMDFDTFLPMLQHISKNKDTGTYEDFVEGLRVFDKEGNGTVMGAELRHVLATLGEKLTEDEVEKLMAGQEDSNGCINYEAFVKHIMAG
T1 sequence (Q3SZE5 whole entry partner): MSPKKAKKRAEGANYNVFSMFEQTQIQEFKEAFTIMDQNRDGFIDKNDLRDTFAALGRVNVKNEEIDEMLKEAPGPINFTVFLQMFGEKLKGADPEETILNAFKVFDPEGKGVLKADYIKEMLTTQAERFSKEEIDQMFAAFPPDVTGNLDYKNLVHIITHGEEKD

CCc1nc(-c2ccc3c(c2)CC[C@H]3NC(=O)c2cnn(C)c2)no1 [(R)-N-(5-(5-ethyl-1,2,4-oxadiazol-3-yl)-2,3-dihydro-1H-inden-1-yl)-1-methyl-1H-pyrazole-4-carboxamide]
CDMF75 IC15 [1]: 0.4 µM | IC10, plasma concentration for fractional shortening [2]: 0.8 µM
